Laboratory results reported in patent US20250241901A1, “ACTIVATION OF MNRR1 / CHCHD2 AS A THERAPEUTIC TARGET FOR MITOCHONDRIA ASSOCIATED DISORDERS” (Wayne State University, priority 2024, published 2025).

How the values were obtained:
[1] = test system: inflammatory factors such as ll6, ll1b, Tnf, and Tlr4; assay: High-throughput RT qPCR of inflammatory factors in decidua; format: in vivo, mouse; settings: LPS-injected dams
Method: FIGS. 3A & 3B. The transcript levels of several inflammatory factors such as 116, Illb, Tnf, and Tlr4, among others, were assessed in the decidual samples and increased expression was found in dams intra-amniotically injected with LPS that was abrogated upon treatment with nitazoxanide.
High-throughput RT qPCR: This was performed as previously described (Motomura et al., JCI Insight, 7, 2022). Briefly, total RNA was isolated from decidua with RNeasy Mini Kits (Qiagen), according to the manufacturer's instructions. RNA concentrations, purity, and integrity were evaluated with the NanoDrop 8000 spectrophotometer (Thermo Scientific, Wilmington, DE, USA) and the Bioanalyzer 2100 (Agilent Technologies, Wilmington, DE, USA). cDNA was synthesized by using SuperScript IV VILO Master Mix (Invitrogen by Thermo Fisher Scientific Baltics UAB, Vilnius, Lithuania). Gene expression profiling of the tissues was performed on the BioMark System for high-throughput RT-qPCR (Fluidigm, San Francisco, CA, USA) or the ABI 7500 Fast real-time PCR system (Applied Biosystems, Life Technologies Corporation, Pleasanton, CA, USA) with the TaqMan gene expression assays (Applied Biosystems, Life Technologies Corporation). […] Data were normalized by using multiple reference genes (Gusb, Hsp90abl, Gapdh, and Actb) averaged within each sample, and relative changes in transcript levels were calculated by the AACt method. […]

[2] = in cells; cited from earlier work
[3] = test system: MELAS patient fibroblasts; assay: LPS-induced ROS and TNF levels in MELAS patient fibroblasts; format: cell-based, human; settings: 10 μM + 500 ng/mL LPS, 24 h
Method: FIGS. 8A-8D: MNRR1 activation using tizoxanide enhances mitochondrial function, mitophagy, and protects from LPS-induced inflammation in MELAS patient fibroblasts. FIG. 8A: Equal amounts of lysates from MELAS patient fibroblast (MF 1, 2, or 3) lysates treated with vehicle (DMSO) or tizoxanide (10 μM) for 48 h were separated on an SDS-PAGE gel and probed for LC3B, PGC1a, MNRR1, MTCO2, TOM20, and phospho-ubiquitin (S65) levels. GAPDH orTubulin was probed as a loading control. FIG. 8B: Oxygen consumption measured from MELAS patient fibroblasts treated with vehicle (DMSO) or tizoxanide (10 μM) for 48 h (n=4 biological replicates, mean±SE). FIG. 8C: Mitochondrial ATP rate measured in MELAS patient fibroblasts treated with vehicle (DMSO) or tizoxanide (10 μM) for 48 h (n=4 biological replicates, mean±SE). FIG. 8D: Heatmap representation of ROS and TNFα transcript levels from MELAS patient fibroblasts treated with vehicle (DMSO), LPS (DMSO+500 ng/mL LPS), or LPS plus tizoxanide (10 μM tizoxanide+500 ng/mL LPS) for 24 h (n=4 biological replicates). In all figures, * indicates p<0.05, ** indicates p<0.005.
ROS measurements: Total cellular ROS measurements were performed with CM-H2DCFDA (Life Technologies). […] Cells were washed twice in phosphate buffered saline and analyzed for fluorescence on a BioTek Synergy H1 Microplate Reader (Agilent).

SMILES	LPS-increased transcript levels of inflammatory factors in decidual samples [1]	fraction metabolized to tizoxanide [2] [%]	LPS-induced pro-inflammatory response (ROS and TNF levels) [3]
CC(=O)Oc1ccccc1C(=O)Nc1ncc([N+](=O)[O-])s1 [nitazoxanide, Nitazoxanide]	abrogated	> 97	
O=C(Nc1ncc([N+](=O)[O-])s1)c1ccccc1O [tizoxanide, Tizoxanide]			blocked
